Activity calls are given as the source filed them. The rule behind the calls is not given here.
Tested on: rodent carcinogenicity bioassays, tumor incidence
Experiment: CCRIS carcinogenicity studies
Procedure, shortened: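 NCI-built, expert-reviewed records of carcinogenicity and related test outcomes (mutagenicity, tumor promotion/inhibition) compiled from published and report sources, historical span 1985-2011, not updated.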

CS(=O)CC(=O)c1ccccn1 (stereo not given)
carcinogen call (Species: MOUSE, Strain/Sex: B6C3F1/FEMALE, Route: ORAL, Dose: 0, 40, 240, 600 MG/KG IN DIET FOR 80 WK (STUDY DURATION: 80 WK), Dose: 0, 40, 240, 600 MG/KG IN DIET FOR 80 WK (STUDY DURATION: 80 WK), Tumor Site: Type of Lesion: LUNG: ALVEOLOGENIC ADENOCARCINOMA): active; positive | carcinogen call (Species: MOUSE, Strain/Sex: CF1/MALE, Route: ORAL, Dose: 0, 40, 240, 600 MG/KG IN DIET FOR 80 WK (STUDY DURATION: 80 WK), Dose: 0, 40, 240, 600 MG/KG IN DIET FOR 80 WK (STUDY DURATION: 80 WK)): inactive; negative | carcinogen call (Species: RAT, Strain/Sex: WISTAR/FEMALE, Route: ORAL, Dose: 0, 40, 240, 600 MG/KG IN DIET FOR 104 WK (STUDY DURATION: 104 WK), Dose: 0, 40, 240, 600 MG/KG IN DIET FOR 104 WK (STUDY DURATION: 104 WK)): inactive; negative | carcinogen call (Species: RAT, Strain/Sex: WISTAR/MALE, Route: ORAL, Dose: 0, 40, 240, 600 MG/KG IN DIET FOR 104 WK (STUDY DURATION: 104 WK), Dose: 0, 40, 240, 600 MG/KG IN DIET FOR 104 WK (STUDY DURATION: 104 WK), Tumor Site: Type of Lesion: LIVER: HEPATOCELLULAR ADENOMA): active; positive

COCCl
carcinogen call (Species: MOUSE, Strain/Sex: ICR/FEMALE, Route: SUBCUTANEOUS, Dose: 300 UG IN 0.05 ML NUJOL 1/WK FOR 685 D, Tumor Site: Type of Lesion: INJECTION SITE: SARCOMA): active; positive

ClC1=CC(c2cc(Cl)ccc2Cl)=C(Cl)[C@H]2O[C@@H]12
carcinogen call (Species: MOUSE, Strain/Sex: STRAIN-A/FEMALE, Route: INTRAPERITONEAL, Dose: 0, 0.1, 0.2 UMOL/UL OF DMSO 5, 10 AND 20 µL GIVEN ON DAYS 4, 8 AND 15 AFTER BIRTH, RESPECTIVELY (STUDY DURATION: 28 WK), Dose: 0, 0.1, 0.2 UMOL/UL OF DMSO 5, 10 AND 20 µL GIVEN ON DAYS 4, 8 AND 15 AFTER BIRTH, RESPECTIVELY (STUDY DURATION: 28 WK)): inactive; negative | carcinogen call (Species: MOUSE, Strain/Sex: STRAIN-A/MALE, Route: INTRAPERITONEAL, Dose: 0, 0.1, 0.2 UMOL/UL OF DMSO 5, 10 AND 20 µL GIVEN ON DAYS 4, 8 AND 15 AFTER BIRTH, RESPECTIVELY (STUDY DURATION: 28 WK), Dose: 0, 0.1, 0.2 UMOL/UL OF DMSO 5, 10 AND 20 µL GIVEN ON DAYS 4, 8 AND 15 AFTER BIRTH, RESPECTIVELY (STUDY DURATION: 28 WK)): inactive; negative

CC1CN(N=O)CC(C)N1C (stereo not given)
carcinogen call (Species: RAT, Strain/Sex: F344/FEMALE, Route: ORAL, Dose: 0, 110 MG/L IN DRINKING WATER 5 D/WK FOR 26 WK, STUDY DURATION: 40-50 WK, Dose: 0, 110 MG/L IN DRINKING WATER 5 D/WK FOR 26 WK, STUDY DURATION: 40-50 WK, Tumor Site: Type of Lesion: THYMUS GLAND: LYMPHOMA OR LEUKEMIA, MULTIPLE SITES: LYMPHOMA OR LEUKEMIA, NASAL CAVITY: CARCINOMA, Tumor Site: Type of Lesion: THYMUS GLAND: LYMPHOMA OR LEUKEMIA, MULTIPLE SITES: LYMPHOMA OR LEUKEMIA, NASAL CAVITY: CARCINOMA): active; positive

O=C(NCC1CCCCN1)c1cc(OCC(F)(F)F)ccc1OCC(F)(F)F (stereo not given)
carcinogen call (Species: MOUSE, Strain/Sex: CD-1/MALE,FEMALE, Route: ORAL, Dose: 15, 30, 60 MG/KG/DAY IN DIET FOR 18 MO, Dose: 15, 30, 60 MG/KG/DAY IN DIET FOR 18 MO): inactive; negative | carcinogen call (Species: RAT, Strain/Sex: WISTAR/MALE,FEMALE, Route: ORAL, Dose: 15, 30, 60 MG/KG/DAY IN DIET FOR 24 MO, Dose: 15, 30, 60 MG/KG/DAY IN DIET FOR 24 MO): inactive; negative

Cc1c2ccccc2c(CO)c2ccc3ccccc3c12
carcinogen call (Species: MOUSE, Strain/Sex: B6C3F1/MALE, Route: INTRAPERITONEAL, Dose: 0, 0.0025, 0.01, 0.03 UMOL/G IN 10 µL/G TRIOCTANOIN D 12 OF AGE (STUDY DURATION: 10 MO), Dose: 0, 0.0025, 0.01, 0.03 UMOL/G IN 10 µL/G TRIOCTANOIN D 12 OF AGE (STUDY DURATION: 10 MO), Tumor Site: Type of Lesion: LIVER: HEPATOMA): active; positive | carcinogen call (Species: MOUSE, Strain/Sex: B6C3F1/MALE, Route: INTRAPERITONEAL, Dose: 0, 0.0025 UMOL/G IN 10 µL TRIOCTANOIN ON D 12, 16, 20 AND 24 OF AGE (STUDY DURATION: 12 MO), Tumor Site: Type of Lesion: LIVER: HEPATOMA): active; positive | carcinogen call (Species: MOUSE, Strain/Sex: B6C3F1/MALE, Route: INTRAPERITONEAL, Dose: 0, 0.0075, 0.015, 0.03 UMOL/G IN 10 µL/G TRIOCTANOIN ONCE ON D 12 OF AGE (STUDY DURATION: 10 MO), Dose: 0, 0.0075, 0.015, 0.03 UMOL/G IN 10 µL/G TRIOCTANOIN ONCE ON D 12 OF AGE (STUDY DURATION: 10 MO), Tumor Site: Type of Lesion: LIVER: HEPATOMA): active; positive | carcinogen call (Species: MOUSE, Strain/Sex: B6C3F1/MALE, Route: INTRAPERITONEAL, Dose: 0, 0.01, 0.03, 0.06, UMOL/G IN 5 µL/G DMSO ONCE ON D 12 AGE (STUDY DURATION: 10 MO), Dose: 0, 0.01, 0.03, 0.06, UMOL/G IN 5 µL/G DMSO ONCE ON D 12 AGE (STUDY DURATION: 10 MO), Tumor Site: Type of Lesion: LIVER: HEPATOMA): active; positive | carcinogen call (Species: MOUSE, Strain/Sex: B6C3F1/MALE, Route: INTRAPERITONEAL, Dose: 0, 0.03, 0.08, 0.25 UMOL/G IN 10 µL/G TRIOCTANOIN ONCE AT 12 D OF AGE (STUDY DURATION: 8.5 MO), Dose: 0, 0.03, 0.08, 0.25 UMOL/G IN 10 µL/G TRIOCTANOIN ONCE AT 12 D OF AGE (STUDY DURATION: 8.5 MO), Tumor Site: Type of Lesion: LIVER: HEPATOMA): active; positive | carcinogen call (Species: MOUSE, Strain/Sex: STRAIN-A/FEMALE, Route: INTRAPERITONEAL, Dose: 0, 0.01, 0.03, 0.06 UMOL/G IN 5 µL DMSO/G ONCE AT 4-6 WK OF AGE (STUDY DURATION: 6 MO), Dose: 0, 0.01, 0.03, 0.06 UMOL/G IN 5 µL DMSO/G ONCE AT 4-6 WK OF AGE (STUDY DURATION: 6 MO), Tumor Site: Type of Lesion: LUNG: ADENOMA): active; positive | carcinogen call (Species: RAT, Strain/Sex: SPRAGUE-DAWLEY/FEMALE, Route: SUBCUTANEOUS, Dose: 0, 0.2 UMOL 3/WK FOR 20 DOSES (STUDY DURATION: 52 WK), Tumor Site: Type of Lesion: INJECTION SITE: SARCOMA): active; positive | carcinogen call (Species: RAT, Strain/Sex: SPRAGUE-DAWLEY/FEMALE, Route: SUBCUTANEOUS, Dose: 0, 2 UMOL IN 0.25 ML TRIOCTANOIN INTO LEFT HIND LEG AT ABOUT 40 D OF AGE FOLLOWED BY A SECOND DOSE 6 D LATER (STUDY DURA): inactive; negative | carcinogen call (Species: RAT, Strain/Sex: SPRAGUE-DAWLEY/FEMALE, Route: SUBCUTANEOUS, Dose: 0, 2 UMOL IN 0.25 ML TRIOCTANOIN ONCE INTO LEFT HIND LEG AT ABOUT 40 D OF AGE (STUDY DURATION: 16 MO)): inactive; negative

C=C1C[C@@]23CC[C@H]4[C@@](C)(CCC[C@@]4(C)C(=O)O[C@@H]4O[C@H](CO)[C@@H](O)[C@H](O)[C@H]4O)[C@@H]2CC[C@]1(O[C@@H]1O[C@H](CO)[C@@H](O)[C@H](O)[C@H]1O[C@@H]1O[C@H](CO)[C@@H](O)[C@H](O)[C@H]1O)C3
carcinogen call (Species: RAT, Strain/Sex: F344/FEMALE, Route: ORAL, Dose: 0, 2.5, 5% IN DIET FOR 104 WK (STUDY DURATION: 108 WK), Dose: 0, 2.5, 5% IN DIET FOR 104 WK (STUDY DURATION: 108 WK)): inactive; negative | carcinogen call (Species: RAT, Strain/Sex: F344/MALE, Route: ORAL, Dose: 0, 2.5, 5% IN DIET FOR 104 WK (STUDY DURATION: 108 WK), Dose: 0, 2.5, 5% IN DIET FOR 104 WK (STUDY DURATION: 108 WK)): inactive; negative | carcinogen call (Species: RAT, Strain/Sex: WISTAR/FEMALE, Route: ORAL, Dose: 0, 0.2, 0.6%, 1.2% IN DIET FOR 24 MO (STUDY DURATION: 24 MO), Dose: 0, 0.2, 0.6%, 1.2% IN DIET FOR 24 MO (STUDY DURATION: 24 MO)): inactive; negative | carcinogen call (Species: RAT, Strain/Sex: WISTAR/MALE, Route: ORAL, Dose: 0, 0.2, 0.6, 1.2% IN DIET FOR 24 MO (STUDY DURATION: 24 MO), Dose: 0, 0.2, 0.6, 1.2% IN DIET FOR 24 MO (STUDY DURATION: 24 MO)): inactive; negative

O=CNC(N1CCOCC1)C(Cl)(Cl)Cl (stereo not given)
carcinogen call (Species: RAT, Strain/Sex: WISTAR/FEMALE, Route: ORAL, Dose: 0, 67, 330, 665 MG/KG IN DIET LESS THAN 2 YR (STUDY DURATION: LESS THAN 2 YR), Dose: 0, 67, 330, 665 MG/KG IN DIET LESS THAN 2 YR (STUDY DURATION: LESS THAN 2 YR)): inactive; negative | carcinogen call (Species: RAT, Strain/Sex: WISTAR/MALE, Route: ORAL, Dose: 0, 67, 330, 665 MG/KG IN DIET LESS THAN 2 YR (STUDY DURATION: LESS THAN 2 YR), Dose: 0, 67, 330, 665 MG/KG IN DIET LESS THAN 2 YR (STUDY DURATION: LESS THAN 2 YR)): inactive; negative

Source: PubChem BioAssay AID1259411 (Chemical Carcinogenesis Research Information System (CCRIS), 2018)
